This is an account of results in ChEMBL document CHEMBL3044636, “Effectiveness of five insecticides for the control of adults and young stages of Cacopsylla melanoneura (Förster) (Hemiptera: Psyllidae) in a semi-field trial” (2010).

Calls of active or inactive are those of the source. The calls are words filed in the database; no cut-off is given here.

Assay [1] has as its system Cacopsylla melanoneura. As to the kind of experiment: Insecticidal activity against young stage of Cacopsylla melanoneura in apple plant assessed as mortality at 300 g/ha treated for 1 hr measured after 7 days relative to control. Type of assay: functional.
Assay [2] deals with Cacopsylla melanoneura. Put plainly: Insecticidal activity against adult of Cacopsylla melanoneura in apple plant assessed as reduction of progeny per female at 300 g/ha treated for 7 days measured after 7 days. Type of assay: functional, organism-based.
Assay [3] has as its system Cacopsylla melanoneura. Put plainly: Insecticidal activity against adult of Cacopsylla melanoneura in apple plant assessed as reduction of progeny per female at 300 g/ha treated for 1 hr measured after 7 days. Type of assay: functional, organism-based.
For assay [4], the system named is Cacopsylla melanoneura. Put plainly: Insecticidal activity against adult of Cacopsylla melanoneura in apple plant assessed as overwintered female mortality at 300 g/ha treated for 1 hr measured after 3 days relative to control. The class given is functional.
The subject of assay [5] is Cacopsylla melanoneura. As to the kind of experiment: Insecticidal activity against adult of Cacopsylla melanoneura in apple plant assessed as overwintered female mortality at 300 g/ha treated for 7 days measured after 1 day relative to control. Type of assay: functional.
The subject of assay [6] is Cacopsylla melanoneura. Put plainly: Insecticidal activity against adult of Cacopsylla melanoneura in apple plant assessed as overwintered female mortality at 300 g/ha treated for 1 hr measured after 1 day relative to control. Type of assay: functional.
Assay [7] deals with Cacopsylla melanoneura. As to the kind of experiment: Insecticidal activity against adult of Cacopsylla melanoneura in apple plant assessed as overwintered female mortality at 300 g/ha treated for 14 days measured after 3 days relative to control. The class given is functional.
For assay [8], the system named is Cacopsylla melanoneura. Put plainly: Insecticidal activity against adult of Cacopsylla melanoneura in apple plant assessed as overwintered female mortality at 300 g/ha treated for 14 days measured after 1 day relative to control. Type of assay: functional.
Assay [9] has as its system Cacopsylla melanoneura. Put plainly: Insecticidal activity against young stage of Cacopsylla melanoneura in apple plant assessed as mortality at 300 g/ha treated for 7 days measured after 7 days relative to control. The class given is functional.
Assay [10] has as its system Cacopsylla melanoneura. As to the kind of experiment: Insecticidal activity against adult of Cacopsylla melanoneura in apple plant assessed as overwintered female mortality at 300 g/ha treated for 7 days measured after 3 days relative to control. Type of assay: functional.
The test system of assay [11] is Cacopsylla melanoneura. Put plainly: Insecticidal activity against young stage of Cacopsylla melanoneura in apple plant assessed as mortality at 300 g/ha treated for 14 days measured after 7 days relative to control. Type of assay: functional.
In assay [12] the test system is Cacopsylla melanoneura. As to the kind of experiment: Insecticidal activity against adult of Cacopsylla melanoneura in apple plant assessed as reduction of progeny per female at 300 g/ha treated for 14 days measured after 7 days. Type of assay: functional, organism-based.
Assay [13] relates to Cacopsylla melanoneura. Put plainly: Insecticidal activity against adult of Cacopsylla melanoneura in apple plant assessed as overwintered female mortality at 135 g/ha treated for 7 days measured after 1 day relative to control. Type of assay: functional.
Assay [14] deals with Cacopsylla melanoneura. Put plainly: Insecticidal activity against young stage of Cacopsylla melanoneura in apple plant assessed as mortality at 135 g/ha treated for 1 hr measured after 7 days relative to control. The class given is functional.
Assay [15] concerns Cacopsylla melanoneura. Put plainly: Insecticidal activity against adult of Cacopsylla melanoneura in apple plant assessed as reduction of progeny per female at 135 g/ha treated for 7 days measured after 7 days. The class given is functional, organism-based.
Assay [16] has as its system Cacopsylla melanoneura. As to the kind of experiment: Insecticidal activity against adult of Cacopsylla melanoneura in apple plant assessed as reduction of progeny per female at 135 g/ha treated for 14 days measured after 7 days. The class given is functional, organism-based.
The test system of assay [17] is Cacopsylla melanoneura. Put plainly: Insecticidal activity against young stage of Cacopsylla melanoneura in apple plant assessed as mortality at 135 g/ha treated for 7 days measured after 7 days relative to control. The class given is functional.
Assay [18] relates to Cacopsylla melanoneura. As to the kind of experiment: Insecticidal activity against adult of Cacopsylla melanoneura in apple plant assessed as overwintered female mortality at 135 g/ha treated for 7 days measured after 3 days relative to control. The class given is functional.
In assay [19] the test system is Cacopsylla melanoneura. Put plainly: Insecticidal activity against adult of Cacopsylla melanoneura in apple plant assessed as overwintered female mortality at 135 g/ha treated for 1 hr measured after 1 day relative to control. The class given is functional.
Assay [20] relates to Cacopsylla melanoneura. Put plainly: Insecticidal activity against adult of Cacopsylla melanoneura in apple plant assessed as overwintered female mortality at 135 g/ha treated for 14 days measured after 1 day relative to control. Type of assay: functional.
In assay [21] the test system is Cacopsylla melanoneura. Put plainly: Insecticidal activity against adult of Cacopsylla melanoneura in apple plant assessed as reduction of progeny per female at 135 g/ha treated for 1 hr measured after 7 days. The class given is functional, organism-based.
In assay [22] the test system is Cacopsylla melanoneura. Put plainly: Insecticidal activity against adult of Cacopsylla melanoneura in apple plant assessed as overwintered female mortality at 135 g/ha treated for 1 hr measured after 3 days relative to control. Type of assay: functional.
The subject of assay [23] is Cacopsylla melanoneura. As to the kind of experiment: Insecticidal activity against young stage of Cacopsylla melanoneura in apple plant assessed as mortality at 135 g/ha treated for 14 days measured after 7 days relative to control. The class given is functional.
Assay [24] concerns Cacopsylla melanoneura. Put plainly: Insecticidal activity against adult of Cacopsylla melanoneura in apple plant assessed as overwintered female mortality at 135 g/ha treated for 14 days measured after 3 days relative to control. Type of assay: functional.
Assay [25] deals with Cacopsylla melanoneura. Put plainly: Insecticidal activity against adult of Cacopsylla melanoneura in apple plant assessed as overwintered female mortality at 187.5 g/ha treated for 7 days measured after 1 day relative to control. The class given is functional.
Assay [26] has as its system Cacopsylla melanoneura. As to the kind of experiment: Insecticidal activity against adult of Cacopsylla melanoneura in apple plant assessed as overwintered female mortality at 187.5 g/ha treated for 7 days measured after 3 days relative to control. The class given is functional.
Assay [27] concerns Cacopsylla melanoneura. As to the kind of experiment: Insecticidal activity against adult of Cacopsylla melanoneura in apple plant assessed as overwintered female mortality at 187.5 g/ha treated for 14 days measured after 1 day relative to control. The class given is functional.
The subject of assay [28] is Cacopsylla melanoneura. As to the kind of experiment: Insecticidal activity against young stage of Cacopsylla melanoneura in apple plant assessed as mortality at 187.5 g/ha treated for 1 hr measured after 7 days relative to control. Type of assay: functional.
Assay [29] relates to Cacopsylla melanoneura. As to the kind of experiment: Insecticidal activity against adult of Cacopsylla melanoneura in apple plant assessed as overwintered female mortality at 187.5 g/ha treated for 1 hr measured after 1 day relative to control. The class given is functional.
Assay [30] deals with Cacopsylla melanoneura. As to the kind of experiment: Insecticidal activity against adult of Cacopsylla melanoneura in apple plant assessed as overwintered female mortality at 187.5 g/ha treated for 14 days measured after 3 days relative to control. Type of assay: functional.
Assay [31] concerns Cacopsylla melanoneura. Put plainly: Insecticidal activity against adult of Cacopsylla melanoneura in apple plant assessed as reduction of progeny per female at 187.5 g/ha treated for 7 days measured after 7 days. The class given is functional, organism-based.
Assay [32] has as its system Cacopsylla melanoneura. As to the kind of experiment: Insecticidal activity against young stage of Cacopsylla melanoneura in apple plant assessed as mortality at 187.5 g/ha treated for 14 days measured after 7 days relative to control. The class given is functional.
For assay [33], the system named is Cacopsylla melanoneura. As to the kind of experiment: Insecticidal activity against young stage of Cacopsylla melanoneura in apple plant assessed as mortality at 187.5 g/ha treated for 7 days measured after 7 days relative to control. The class given is functional.
Assay [34] has as its system Cacopsylla melanoneura. As to the kind of experiment: Insecticidal activity against adult of Cacopsylla melanoneura in apple plant assessed as overwintered female mortality at 187.5 g/ha treated for 1 hr measured after 3 days relative to control. Type of assay: functional.
The subject of assay [35] is Cacopsylla melanoneura. As to the kind of experiment: Insecticidal activity against adult of Cacopsylla melanoneura in apple plant assessed as reduction of progeny per female at 187.5 g/ha treated for 1 hr measured after 7 days. Type of assay: functional, organism-based.
Assay [36] relates to Cacopsylla melanoneura. As to the kind of experiment: Insecticidal activity against adult of Cacopsylla melanoneura in apple plant assessed as reduction of progeny per female at 187.5 g/ha treated for 14 days measured after 7 days. The class given is functional, organism-based.

For the molecule `O=C(NC(=O)c1c(F)cccc1F)Nc1ccc(Cl)cc1` [DIFLUBENZURON], the Activity with Cacopsylla melanoneura [1] was found to be 98.3%; with Cacopsylla melanoneura [4] it was 56.7%; in the assay with Cacopsylla melanoneura [5], 30%; in the assay with Cacopsylla melanoneura [6] it was 20%; with Cacopsylla melanoneura [7], 63.3%; in the assay with Cacopsylla melanoneura [8], 46.7%. Moreover, the Activity in the assay with Cacopsylla melanoneura [9] was determined as 100%; with Cacopsylla melanoneura [10] it was 56.7%; in the assay with Cacopsylla melanoneura [11], 86.7%. Further, the outcome in the assay with Cacopsylla melanoneura [2], in the assay with Cacopsylla melanoneura [3] and with Cacopsylla melanoneura [12] was Active.
With `CCOc1ccc(C(C)(C)COCc2cccc(Oc3ccccc3)c2)cc1` [ETOFENPROX], the Activity is recorded as 93.3% with Cacopsylla melanoneura [13]; 98.3% in the assay with Cacopsylla melanoneura [14]; 100% in the assay with Cacopsylla melanoneura [17]; 93.3% in the assay with Cacopsylla melanoneura [18]; 93.3% with Cacopsylla melanoneura [19]; 100% with Cacopsylla melanoneura [20]. For the same molecule, the Activity in the assay with Cacopsylla melanoneura [22], in the assay with Cacopsylla melanoneura [23] and in the assay with Cacopsylla melanoneura [24] was 100% throughout. Besides, the result with Cacopsylla melanoneura [15], in the assay on Cacopsylla melanoneura [16] and in the assay with Cacopsylla melanoneura [21] was Active.
As to `CCOC(=O)NCCOc1ccc(Oc2ccccc2)cc1` [PHENOXYCARB], the Activity in the assay on Cacopsylla melanoneura [25] was 40%; in the assay on Cacopsylla melanoneura [26], 60%; in the assay on Cacopsylla melanoneura [27] it was 23.3%; in the assay on Cacopsylla melanoneura [28] it was 93.3%; with Cacopsylla melanoneura [29] it was 3.3%; in the assay on Cacopsylla melanoneura [30], 53.3%. For the same molecule, the figures for the Activity with Cacopsylla melanoneura [32], in the assay on Cacopsylla melanoneura [33] and with Cacopsylla melanoneura [34] were 100%, 91.7% and 16.7%, respectively. Besides, the result with Cacopsylla melanoneura [31], in the assay on Cacopsylla melanoneura [35] and in the assay with Cacopsylla melanoneura [36] was Active.
